# Data published in patent US9464064B2, “HCV helicase inhibitors and methods of use thereof” (University of Kansas, priority 2011, dated 2016).
# Tests used:
# NS3h_1b = molecular target: T1, NS3h_1b (Hepatitis C virus genotype 1b, UniProt Q9WMX2); experiment: ATPase assay without RNA; format: biochemical, hepatitis C virus genotype 1b(con1)
# T1 construct: truncated C-terminally His-tagged NS3 proteins lacking the N-terminal protease, called NS3h; His-tag (C); made in house
# Procedure: A modified “malachite green” assay (Lanzetta, et al. (1979) Anal. Biochem. 100:95-97) was used to measure ATP hydrolysis. Fifty μL reactions contained 25 mM MOPS pH 6.5, 5 mM MgCl2, 2 mM ATP, 5 μg/mL BSA, 0.01% (v/v) TWEEN 20, 0.05 mM DTT, and poly(U) RNA (Saint Louis, Mo.) as indicated. Reactions were initiated by adding NS3h_1b(con1). Reactions were incubated for 15 minutes at 37° C. then stopped by mixing 40 μL of the reaction into 200 μL of the malachite green reagent (3 volumes 0.045% (w/v) malachite green, 1 volume 4.2% ammonium molybdate in 4N HCl, 0.05 volume of 20% TWEEN 20). […] Absorbance at 630 nm was proportional to the concentration of phosphate produced; free phosphate produced was measured against a standard curve.
# A simple explanation for the ability of some of the primuline derivatives to inhibit helicase and protease with similar potency would be that the compounds acted by simply aggregating or denaturing the enzyme. To test for irreversible inhibition, NS3h was incubated with 100 μM of each compound, diluted and then assayed for its ability to unwind DNA under standard conditions. […] In a second test for a simple aggregation mechanism, each compound was tested for its ability to inhibit NS3-catalyzed ATP hydrolysis. ATP hydrolysis fuels the unwinding reaction and NS3 hydrolyzes ATP both in the presence and absence of DNA or RNA; nucleic acid stimulates NS3 catalyzed ATP hydrolysis about 50-fold. […] To test this hypothesis, ATPase assays were performed in the presence of various concentrations of each primuline derivative, under conditions similar to those used to monitor effects on DNA and RNA unwinding. Far more of each compound was needed to inhibit NS3-catalyzed ATP hydrolysis than was needed to inhibit the helicase activity, or, in some cases, NS3 protease activity (Table 11).
# NS3h_1b(con1) = molecular target: T2, NS3h_1b(con1) (Hepatitis C virus genotype 1b, UniProt Q9WMX2); experiment: RNA-stimulated ATP hydrolysis, pH 7.5, HCV; format: biochemical, hepatitis C virus genotype 1b(con1)
# T2 construct: truncated C-terminally His-tagged NS3 proteins lacking the N-terminal protease, called NS3h; His-tag (C); made in house
# T2 sequence (Q9WMX2 1192-1657): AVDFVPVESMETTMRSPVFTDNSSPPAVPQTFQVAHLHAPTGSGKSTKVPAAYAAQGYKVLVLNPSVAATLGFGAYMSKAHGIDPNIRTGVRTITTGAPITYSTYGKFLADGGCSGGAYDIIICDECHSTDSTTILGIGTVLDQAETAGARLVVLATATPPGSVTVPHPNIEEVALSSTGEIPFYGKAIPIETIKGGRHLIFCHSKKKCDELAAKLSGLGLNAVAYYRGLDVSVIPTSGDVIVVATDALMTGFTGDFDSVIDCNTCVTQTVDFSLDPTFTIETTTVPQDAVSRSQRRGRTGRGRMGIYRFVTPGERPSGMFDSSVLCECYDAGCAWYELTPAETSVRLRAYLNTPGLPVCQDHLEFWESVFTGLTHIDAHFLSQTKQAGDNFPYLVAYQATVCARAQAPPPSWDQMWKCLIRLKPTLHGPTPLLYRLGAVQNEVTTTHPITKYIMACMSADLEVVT
# Procedure: (§1) To compare the effect of compounds on HCV NS3h_1b (con1) to NS3h_DV2, reactions were performed with 2 nM of either enzyme in 25 mM Tris pH 7.5, 1.25 mM MgCl2, 1.0 mM ATP, 10% DMSO, 5 μg/ml BSA, 0.01% (v/v) TWEEN 20, 0.05 mM DTT, and 10 μM poly(U) RNA at 37° C.
# To further profile compound specificity, it was determined whether the compounds would inhibit homologous NS3h expressed by the Dengue virus (NS3h_DV2). […] The same assays were also repeated with HCV NS3h_1b(con1) for comparison. […] However, most of the primuline derivatives were relatively potent inhibitors of RNA-stimulated ATP hydrolysis catalyzed by the Dengue enzyme under the same conditions.
# NS3h_DV2 = molecular target: T3, NS3h_DV2 (Dengue virus type 2, UniProt P29990); experiment: RNA-stimulated ATP hydrolysis, pH 7.5, Dengue; format: biochemical; conditions: 10 μM poly(U) RNA, read-out: ATPase w/RNA NS3h_DV2 IC50 (μM) ± SD
# T3 construct: made in house
# T3 sequence (P29990 1646-2093): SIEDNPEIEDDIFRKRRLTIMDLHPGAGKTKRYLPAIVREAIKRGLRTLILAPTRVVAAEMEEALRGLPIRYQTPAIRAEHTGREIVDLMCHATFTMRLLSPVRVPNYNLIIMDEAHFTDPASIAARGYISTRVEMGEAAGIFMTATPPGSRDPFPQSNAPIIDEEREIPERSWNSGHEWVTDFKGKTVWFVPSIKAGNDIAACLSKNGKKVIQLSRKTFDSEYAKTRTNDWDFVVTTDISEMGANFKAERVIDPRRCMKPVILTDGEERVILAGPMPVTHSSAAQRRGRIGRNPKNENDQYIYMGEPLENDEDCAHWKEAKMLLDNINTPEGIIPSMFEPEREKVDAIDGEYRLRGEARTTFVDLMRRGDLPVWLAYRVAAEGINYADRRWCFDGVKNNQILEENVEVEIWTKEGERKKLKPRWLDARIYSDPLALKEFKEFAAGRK
# Procedure: as §1
# To further profile compound specificity, it was determined whether the compounds would inhibit homologous NS3h expressed by the Dengue virus (NS3h_DV2). […] The same assays were also repeated with HCV NS3h_1b(con1) for comparison.
# [1] = Absorbance and fluorescence properties; format: physicochemical; conditions: for Absorbance ∈: extinction coefficient
# Source text: Most of the compounds isolated from the two yellow dyes were fluorescent, absorbing light around 340 nm, and emitting near 420 nm. Their extinction coefficient and peak absorption wavelengths increased as the length of the benzothiazole oligomer increased. Their relative fluorescence decreased with the length of the benzothiazole chain. None of the compounds absorbed light near either the absorption or emission wavelengths of the Cy5-labeled MBHA substrate, or the wavelengths where the fluorescence of ethidium bromide stained DNA, SYBER green I-stained DNA, NS3-catalyzed peptide cleavage, or ATP hydrolysis were measured.
# When directly compared with P4, the semi-synthetic primuline derivatives have a sharper absorbance peak centered near 360 nm, and they emit 3-15 times more light when excited at their absorbance maximum. […] Some compounds, like 12, stained both the cytoplasm and nucleus, but they also stained glass coverslips.
# scNS4A-NS3p = molecular target: T4, scNS4A-NS3p (UniProt P26663); experiment: NS3 protease assay (ENZOLYTE 520), protease fragment; format: biochemical, hepatitis C virus genotype 1b; conditions: read-out: Protease ScNS4a-NS3p IC50 (μM) ± SD; one set of assays
# T4 construct: fused on or other part: NS4A cofactor peptide, from the same polyprotein, fused to the NS3 protease fragment
# T4 sequence (P26663 1027-1657): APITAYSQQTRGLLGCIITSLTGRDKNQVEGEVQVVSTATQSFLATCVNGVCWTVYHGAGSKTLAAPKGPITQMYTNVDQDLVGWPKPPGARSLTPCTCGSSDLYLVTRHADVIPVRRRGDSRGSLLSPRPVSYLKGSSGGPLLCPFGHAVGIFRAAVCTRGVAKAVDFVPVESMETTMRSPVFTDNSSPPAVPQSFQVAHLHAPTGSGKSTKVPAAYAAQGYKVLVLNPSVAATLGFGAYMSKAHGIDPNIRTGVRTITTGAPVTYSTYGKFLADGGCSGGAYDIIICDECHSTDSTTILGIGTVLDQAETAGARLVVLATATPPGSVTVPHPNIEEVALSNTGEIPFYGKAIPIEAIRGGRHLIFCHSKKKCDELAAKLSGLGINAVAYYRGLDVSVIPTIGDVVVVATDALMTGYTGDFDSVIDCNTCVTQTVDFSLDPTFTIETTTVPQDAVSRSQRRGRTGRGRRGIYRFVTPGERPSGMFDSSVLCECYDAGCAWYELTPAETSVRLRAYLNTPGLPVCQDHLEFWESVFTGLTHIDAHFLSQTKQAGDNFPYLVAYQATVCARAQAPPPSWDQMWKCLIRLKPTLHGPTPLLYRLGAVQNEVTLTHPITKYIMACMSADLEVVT
# Procedure: All oligonucleotides were purchased from Integrated DNA Technologies (IDT, Coralville, Iowa). Primuline derivatives were synthesized and purified as described herein. Three different NS3 proteins were used in this study. Two were truncated C-terminally His-tagged NS3 proteins lacking the N-terminal protease, called NS3h, the third was a full-length NS3 with the portion of NS4A needed for protease activation fused to its N-terminus, called scNS4A-NS3 (Howe, et al. (1999) Protein Sci. 8:1332-41), and the fourth was a 23 kDa scNS4A-NS3 protease fragment lacking the helicase domains, called scNS4A-NS3p (Protein One, Rockville, Md.). NS3h was expressed from two different HCV strains. NS3h_1b(con1) was from the con1 strain of genotype 1b (GENBANK accession AB114136), and NS3h_2a(JFH1) was from the JFH1 strain of HCV genotype 2a (GENBANK accession AJ238799). […] His-tagged recombinant NS3h_1b(con1), NS3h_2a(JFH1), and scNS4A-NS3 (also from genotype 1b(con1)) were expressed, and purified as previously described (Frick, et al. (2010) supra; Lam, et al. (2003) J. Virol. 77:3950-3961). The scNS4A-NS3p (genotype 1b) was from Protein One. A plasmid expressing NS3h from dengue virus strain 2 (NS3h_DV2)(GENBANK accession 2BMF) is known in the art (Xu, et al. (2005) J. Virol. 79:10278-10288), and used to express and purify NS3h_DV2 (Belon, et al. (2010) supra)
# All NS3 protease assays were carried out using the 5-Carboxyfluorescein-labeled substrate from the AnaSpec. ENZOLYTE 520 Protease Assay Kit (AnaSpec, San Jose, Calif.). Each assay contained 5 nM scNS4A-NS3 or 50 nM scNS4A-NS3p, […], 5% DMSO and 1× Anaspec HCV protease assay buffer. Assays were carried out in a total volume of 20 μl in black 384-well plates with fluorescence at 520 nm measured using a BMG FLUOstar Omega fluorescence spectrophotometer. Reactions were performed with eight concentrations of a two-fold dilution series of each compound (in duplicate) starting at 100 μM.
# T1 sequence (Q9WMX2 1192-1657): as the sequence (Q9WMX2 1192-1657) above
smiles,measurement,setting,value
"Cc1ccc2nc(-c3ccc4nc(-c5ccc(NC(=O)c6ccc(N)cc6)cc5)sc4c3)sc2c1S(=O)(=O)O [Compound 6, 2′-(4-(4-aminobenzamido)phenyl)-6-methyl-[2,6′-bibenzo[d]thiazole]-7-sulfonic acid]",IC50,NS3h_1b,194 ± 30 µM
same,IC50,NS3h_1b(con1),140 ± 3 µM
same,IC50,NS3h_DV2,12 ± 4 µM
same,Absorbance λmax,[1],360 nm
same,Fluorescence Emmax,[1],429 nm
same,Fluorescence RFU@ 10 μM,[1],4 RFU
same,Absorbance ∈,[1],"36,600 M^−1cm^−1"
"Cc1ccc2nc(-c3ccc4nc(-c5ccc(NC(=O)c6ccc(F)cc6)cc5)sc4c3)sc2c1S(=O)(=O)O.N [Compound 7, 2′-(4-(4-fluorobenzamido)phenyl)-6-methyl-[2, bibenzo[d]thiazole]-7-sulfonic acid]",IC50,scNS4A-NS3p,> 100 µM
same,IC50,NS3h_1b,67 ± 30 µM
same,IC50,NS3h_1b(con1),73 ± 13 µM
same,IC50,NS3h_DV2,6 ± 1 µM
same,Absorbance λmax,[1],356 nm
same,Fluorescence Emmax,[1],496 nm
same,Fluorescence RFU@ 10 μM,[1],111 RFU
same,Absorbance ∈,[1],"24,950 M^−1cm^−1"
"Cc1ccc2nc(-c3ccc4nc(-c5ccc(NC(=O)c6ccc(C(F)(F)F)cc6)cc5)sc4c3)sc2c1S(=O)(=O)O [Compound 12, 6-methyl-2′-(4-(4-(trifluoromethyl)benzamido)phenyl)-[2,6′-bibenzo[d]thiazole]-7-sulfonic acid]",IC50,scNS4A-NS3p,7 µM
same,IC50,NS3h_1b,24 ± 5 µM
same,IC50,NS3h_1b(con1),16 ± 5 µM
same,IC50,NS3h_DV2,2 ± 0.5 µM
same,Absorbance λmax,[1],356 nm
same,Fluorescence Emmax,[1],498 nm
same,Fluorescence RFU@ 10 μM,[1],158 RFU
same,Absorbance ∈,[1],"42,750 M^−1cm^−1"
"Cc1ccc2nc(-c3ccc4nc(-c5ccc(NC(=O)c6ccc(C(C)(C)C)cc6)cc5)sc4c3)sc2c1S(=O)(=O)O [Compound 13, 2′-(4-(4-(tert-butyl)benzamido)phenyl)-6-methyl-[2,6′-bibenzo[d]thiazole]-7-sulfonic acid]",IC50,scNS4A-NS3p,93 µM
same,IC50,NS3h_1b,150 ± 21 µM
same,IC50,NS3h_1b(con1),150 ± 40 µM
same,IC50,NS3h_DV2,8 ± 1 µM
same,Absorbance λmax,[1],356 nm
same,Fluorescence Emmax,[1],502 nm
same,Fluorescence RFU@ 10 μM,[1],164 RFU
same,Absorbance ∈,[1],"37,150 M^−1cm^−1"
"Cc1ccc2nc(-c3ccc4nc(-c5ccc(NC(=O)c6ccc(Br)cc6)cc5)sc4c3)sc2c1S(=O)(=O)O [Compound 15, 2′-(4-(4-bromobenzamido)phenyl)-6-methyl-[2,6′-bibenzo[d]thiazole]-7-sulfonic acid]",IC50,scNS4A-NS3p,6.5 µM
same,IC50,NS3h_1b,50 ± 4 µM
same,IC50,NS3h_1b(con1),21 ± 1 µM
same,IC50,NS3h_DV2,3 ± 0.8 µM
same,Absorbance λmax,[1],356 nm
same,Fluorescence Emmax,[1],497 nm
same,Fluorescence RFU@ 10 μM,[1],209 RFU
same,Absorbance ∈,[1],"51,600 M^−1cm^−1"
"Cc1ccc2nc(-c3ccc4nc(-c5ccc(NC(=O)c6cccc(Cl)c6)cc5)sc4c3)sc2c1S(=O)(=O)O [Compound 17, 2′-(4-(3-chlorobenzamido)phenyl)-6-methyl-[2,6′-bibenzo[d]thiazole]-7-sulfonic acid]",IC50,scNS4A-NS3p,24 µM
same,IC50,NS3h_1b,74 ± 7 µM
same,IC50,NS3h_1b(con1),51 ± 3 µM
same,IC50,NS3h_DV2,4 ± 0.6 µM
same,Absorbance λmax,[1],356 nm
same,Fluorescence Emmax,[1],502 nm
same,Fluorescence RFU@ 10 μM,[1],215 RFU
same,Absorbance ∈,[1],"59,500 M^−1cm^−1"
"Cc1ccc2nc(-c3ccc4nc(-c5ccc(NC(=O)c6ccc(Cl)c(Cl)c6)cc5)sc4c3)sc2c1S(=O)(=O)O [Compound 18, 2′-(4-(3,4-dichlorobenzamido)phenyl)-6-methyl-[2,6′-bibenzo[d]thiazole]-7-sulfonic acid]",IC50,scNS4A-NS3p,6.4 µM
same,IC50,NS3h_1b,44 ± 12 µM
same,IC50,NS3h_1b(con1),72 ± 13 µM
same,IC50,NS3h_DV2,4 ± 1 µM
same,Absorbance λmax,[1],356 nm
same,Fluorescence Emmax,[1],501 nm
same,Fluorescence RFU@ 10 μM,[1],203 RFU
same,Absorbance ∈,[1],"44,000 M^−1cm^−1"
"Cc1ccc2nc(-c3ccc4nc(-c5ccc(NC(=O)c6cc(C(F)(F)F)cc(C(F)(F)F)c6)cc5)sc4c3)sc2c1S(=O)(=O)O [Compound 24, 2′-(4-(3,5-bis(trifluoromethyl)benzamido)phenyl)-6-methyl-[2,6′-bibenzo[d]thiazole]-7-sulfonic acid]",IC50,scNS4A-NS3p,7.6 µM
same,IC50,NS3h_1b,141 ± 28 µM
same,IC50,NS3h_1b(con1),> 200 µM
same,IC50,NS3h_DV2,11 ± 2 µM
same,Absorbance λmax,[1],355 nm
same,Fluorescence Emmax,[1],497 nm
same,Fluorescence RFU@ 10 μM,[1],121 RFU
same,Absorbance ∈,[1],"45,650 M^−1cm^−1"
"Cc1ccc2nc(-c3ccc4nc(-c5ccc(NC(=O)c6ccc7nc(-c8ccc(N)cc8)sc7c6)cc5)sc4c3)sc2c1S(=O)(=O)O [Compound 35, 2′-(4-(2-(4-aminophenyl)benzo[d]thiazole-6-carboxamido)phenyl)-6-methyl-[2,6′-bibenzo[d]thiazole]-7-sulfonic acid]",IC50,scNS4A-NS3p,20 µM
same,IC50,NS3h_1b,> 200 µM
same,IC50,NS3h_1b(con1),150 ± 2 µM
same,Absorbance λmax,[1],361 nm
same,Fluorescence Emmax,[1],532 nm
same,Fluorescence RFU@ 10 μM,[1],2 RFU
same,Absorbance ∈,[1],"42,000 M^−1cm^−1"
"Cc1ccc2nc(-c3ccc4nc(-c5ccc6nc(-c7ccc8nc(-c9ccc(N)cc9)sc8c7)sc6c5)sc4c3)sc2c1S(=O)(=O)O [Compound P4, 2′″-(4-aminophenyl)-6-methyl-[2,6′:2″,6′″-quaterbenzo[d]thiazole]-7-sulfonic acid]",IC50,scNS4A-NS3p,4.9 µM
same,IC50,NS3h_1b,43 ± 10 µM
same,IC50,NS3h_DV2,0.94 ± 0.7 µM
same,Absorbance λmax,[1],382 nm
same,Fluorescence Emmax,[1],467 nm
same,Fluorescence RFU@ 10 μM,[1],3 RFU
same,Absorbance ∈,[1],"32,000 M^−1cm^−1"
